Experimental data taken from patent US20200237626A1, “Anti-Aging Corrective and Protective Formulation and Methods” (JAMRM, LLC, priority 2019, published 2020).

Tested on: human skin cells (HEKn keratinocytes)
Assay: Urban Dust induced lipid peroxidation
Format: cell-based
Details: after 4 hours, test sample 5%
Method: A third-party testing facility conducted tests to determine the effects of standardized Urban Dust particulates (NIST® SRM® 1649b) on the production of free radicals and lipid peroxidation in human skin cells (HEKn keratinocytes). Tests were conducted at 1 hour, 2 hours and 3 hours with varying concentrations of the test samples (1%, 3%, and 5%) (i.e. at one hour intervals) to measure intracellular reactive oxygen species and after 4 hours with test sample (5%) for lipid peroxidation. A fluorescent plate reader was utilized to measure a fluorescent dye incubated in all test conditions which measures intracellular reactive oxygen species and lipid peroxidation. The measurement is expressed as the mean relative fluorescent unit (RFU). FIG. 4B illustrates by bar graph the effects of the Urban Dust on tissue. Non-exposed tissue has immeasurably low RFU. The urban dust exposed cells have an increase in lipid peroxidation with 0.2 RFU.

**Q.** Which results are given for `Cc1c(C)c2c(c(C)c1O)CCC(C)(C(=O)O)O2` (centres unmarked) [Trolox]?
**A.** Lipid peroxidation (mean RFU) (exposed to Urban Dust, Urban Dust alone 0.2 RFU): about 0.05 RFU; Reduction in lipid peroxidation (vs Urban Dust exposed cells): 67%
